Measurements taken from US20210015884A1 (priority 2018, published 2021).

Legend:
[1] = tested on: m^6A methylation in viral RNA; assay type: cell-based, influenza A virus
IVA/PC virus [2] = experiment: microbe, parasite or virus in culture; assay type: cell-based; settings: Influenza A virus, MDCK, read-out: IC50 of Zanamivir
IVA/PC virus [3] = assay type: cell-based, influenza A virus

5′ GGACUGGACUGGACUGGACU 3′ (chemistry not given here) [Target]
m^6A methylation in corresponding viral RNA [1]: concomitant decrease

CC(=O)N[C@H]1[C@H]([C@H](O)[C@H](O)CO)OC(C(=O)O)=C[C@@H]1N=C(N)N [Zanamivir]
IC50 (IVA/PC virus [2]): 2 nM

Cc1ccc(Cl)c(Nc2ccccc2C(=O)O)c1Cl [MA, meclofenamic acid]
effect on viral resistance to Zanamivir (IVA/PC virus [3]): potentiates viral resistance to Zanamivir
